Laboratory results taken from US7217701B2, “Intracellular calcium concentration increase inhibitors” (Katsuhiko Mikoshiba, priority 2001, dated 2007).
Like-named read-outs stand apart in the source and are kept apart here.

What was measured:
[1] = biological target: T1, calcium release by IP3 (IP3 receptor) (Mus musculus, UniProt P11881); test: Inhibitory activity against calcium release by IP3 (cerebellum microsomes, fura2); assay type: biochemical
T1 construct: from tissue; host or cells: mouse cerebellum microsomes
T1 sequence (P11881 whole entry): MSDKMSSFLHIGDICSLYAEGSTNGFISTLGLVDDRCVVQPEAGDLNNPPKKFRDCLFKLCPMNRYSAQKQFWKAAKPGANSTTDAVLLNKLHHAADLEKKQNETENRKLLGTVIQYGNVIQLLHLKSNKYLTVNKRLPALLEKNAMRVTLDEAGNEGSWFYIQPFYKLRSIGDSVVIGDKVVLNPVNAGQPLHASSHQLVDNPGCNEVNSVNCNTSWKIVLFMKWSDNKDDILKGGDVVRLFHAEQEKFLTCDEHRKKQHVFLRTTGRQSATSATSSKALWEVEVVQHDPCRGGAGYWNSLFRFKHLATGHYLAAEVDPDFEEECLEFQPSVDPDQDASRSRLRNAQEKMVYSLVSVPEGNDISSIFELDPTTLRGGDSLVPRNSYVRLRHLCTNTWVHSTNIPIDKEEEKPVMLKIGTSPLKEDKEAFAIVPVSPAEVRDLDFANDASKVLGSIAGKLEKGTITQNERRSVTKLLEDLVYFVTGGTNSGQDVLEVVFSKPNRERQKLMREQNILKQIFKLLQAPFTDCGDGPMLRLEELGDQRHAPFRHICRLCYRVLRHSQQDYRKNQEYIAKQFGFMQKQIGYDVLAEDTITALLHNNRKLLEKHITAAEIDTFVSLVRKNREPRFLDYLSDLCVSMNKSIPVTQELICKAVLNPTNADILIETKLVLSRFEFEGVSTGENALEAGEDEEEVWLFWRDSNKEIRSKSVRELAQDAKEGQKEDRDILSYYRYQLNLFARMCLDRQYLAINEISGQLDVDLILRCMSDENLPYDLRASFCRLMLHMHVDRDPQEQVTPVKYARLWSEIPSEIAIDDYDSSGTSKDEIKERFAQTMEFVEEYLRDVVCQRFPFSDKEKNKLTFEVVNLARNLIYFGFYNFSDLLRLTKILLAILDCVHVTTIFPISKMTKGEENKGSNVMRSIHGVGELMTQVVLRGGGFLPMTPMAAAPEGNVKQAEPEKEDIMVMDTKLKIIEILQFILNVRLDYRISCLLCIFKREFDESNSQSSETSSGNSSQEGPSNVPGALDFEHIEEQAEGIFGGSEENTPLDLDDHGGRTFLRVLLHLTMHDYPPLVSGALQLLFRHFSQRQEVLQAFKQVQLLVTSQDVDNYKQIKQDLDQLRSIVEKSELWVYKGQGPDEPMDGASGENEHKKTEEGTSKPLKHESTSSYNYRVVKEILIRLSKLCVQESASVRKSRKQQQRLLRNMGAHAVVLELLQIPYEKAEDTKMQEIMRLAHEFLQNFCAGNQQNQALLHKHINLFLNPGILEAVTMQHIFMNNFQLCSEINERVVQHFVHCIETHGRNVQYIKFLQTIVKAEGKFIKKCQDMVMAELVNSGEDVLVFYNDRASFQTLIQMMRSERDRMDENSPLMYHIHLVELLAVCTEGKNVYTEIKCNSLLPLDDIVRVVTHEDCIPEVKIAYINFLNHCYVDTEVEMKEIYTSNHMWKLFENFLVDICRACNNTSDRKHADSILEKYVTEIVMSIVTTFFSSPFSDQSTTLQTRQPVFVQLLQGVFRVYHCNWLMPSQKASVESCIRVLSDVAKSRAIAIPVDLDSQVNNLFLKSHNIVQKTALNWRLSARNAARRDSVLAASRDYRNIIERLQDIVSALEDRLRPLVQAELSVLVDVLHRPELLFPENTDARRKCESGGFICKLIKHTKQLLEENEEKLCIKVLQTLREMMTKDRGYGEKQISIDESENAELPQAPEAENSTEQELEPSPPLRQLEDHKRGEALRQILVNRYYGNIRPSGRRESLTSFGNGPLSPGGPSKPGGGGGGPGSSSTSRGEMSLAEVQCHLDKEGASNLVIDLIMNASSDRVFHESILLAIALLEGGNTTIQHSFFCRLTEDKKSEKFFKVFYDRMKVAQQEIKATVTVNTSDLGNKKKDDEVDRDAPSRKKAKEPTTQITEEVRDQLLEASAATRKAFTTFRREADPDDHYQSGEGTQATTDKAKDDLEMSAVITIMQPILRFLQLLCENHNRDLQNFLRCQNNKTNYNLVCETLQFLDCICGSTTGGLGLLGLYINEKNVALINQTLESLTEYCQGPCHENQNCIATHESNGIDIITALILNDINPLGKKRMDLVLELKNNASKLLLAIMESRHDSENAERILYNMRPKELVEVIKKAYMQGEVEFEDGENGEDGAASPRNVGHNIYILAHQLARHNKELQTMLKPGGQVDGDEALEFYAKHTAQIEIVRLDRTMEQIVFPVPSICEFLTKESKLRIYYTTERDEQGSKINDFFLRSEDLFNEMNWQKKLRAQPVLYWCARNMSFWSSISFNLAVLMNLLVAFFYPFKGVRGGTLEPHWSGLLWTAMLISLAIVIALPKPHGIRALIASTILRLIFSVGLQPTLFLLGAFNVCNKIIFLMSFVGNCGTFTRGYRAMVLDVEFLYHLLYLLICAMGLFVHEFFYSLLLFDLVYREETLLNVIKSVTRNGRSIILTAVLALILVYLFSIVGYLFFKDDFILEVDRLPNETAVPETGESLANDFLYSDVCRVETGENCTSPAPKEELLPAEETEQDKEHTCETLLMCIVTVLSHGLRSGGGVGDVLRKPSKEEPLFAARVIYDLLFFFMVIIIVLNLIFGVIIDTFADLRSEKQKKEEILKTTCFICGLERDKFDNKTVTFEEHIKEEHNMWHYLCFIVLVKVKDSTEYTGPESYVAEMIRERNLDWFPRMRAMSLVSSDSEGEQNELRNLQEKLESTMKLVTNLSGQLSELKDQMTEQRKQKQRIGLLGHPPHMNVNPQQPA
Method: Furthermore, the supernatant was centrifuged (105,000 g, for 60 minutes). […] Then IP3 was added thereto, and the released calcium was measured by the measurement of the fluorescence of 500 nm obtained at 2-wavelength excitation of 340 nm and 380 nm, and the fluorescence ratio F=340/380.
(§1) 2-aminoethyl diphenylborinate was used as a comparative compound.

[2] = system: capacitative calcium entry in cell strain deficient of IP3 receptors produced from DT40; test: Inhibitory activity against capacitative calcium entry (fura-2 fluorescence ratio); assay type: cell-based, chickens; settings: Gallus gallus
Method: Fura-2 acetoxymethylester was introduced to the cell strain deficient of IP3 receptors produced from the cultivated cell strain DT40 from chickens. The intracellular calcium concentration was measured by the measurement of the fluorescence of 510 nm obtained at 2-wavelength excitation of 340 nm and 380 nm, and its fluorescence ratio F=340/380.
Intracellular calcium store was depleted by activating tapsigalguine (inhibitor of the endoplasmic reticulum calcium pump) without the presence of the calcium ion in the extracellular fluid.
as §1

[3] = mouse cerebellum microsomes, calcium released with 30 nM of IP3 defined as 100%, read-out: IC50
[4] = increase rate of intracellular calcium concentration on adding 2 mM calcium chloride after store depletion with tapsigalguine, IP3 receptor-deficient DT40 cells, read-out: IC50

| IC50 [1, 3] [µM] | IC50 [2, 4] [µM] | other results | SMILES |
| --- | --- | --- | --- |
| 3 |  |  | OB(c1ccc(Cl)cc1)c1ccc(COCc2ccccc2)cc1 [(3), (4-chlorophenyl)(4-benzyloxymethylphenyl)borate] |
|  | 0.66 |  | NCCOB(C1CCCC1)C1CCCC1 [(25), 2-aminoethyl dicyclopentylborate] |
| 2.6 |  |  | Cc1ccc(B(OCCN)c2ccc(C)c(Cl)c2)cc1Cl [(30), 2-aminoethyl bis(3-chloro-4-methylphenyl)borate] |
| 3.8 |  |  | CCOC(=O)N1CCC(NCC(OB(c2ccc(C)c(Cl)c2)c2ccc(C)c(Cl)c2)c2ccccc2)CC1 (stereo not shown) [(47), 1-phenyl-2-(1-(ethoxycarbonyl)-piperidine-4-ylamino)ethyl bis(3-chloro-4-methylphenyl)borate] |
|  | 0.35 |  | Cc1ccc(B(OC(CN(C)C)CN(C)C)c2ccc(C)c(Cl)c2)cc1Cl [(60), 1-(dimethylaminomethyl)-2-dimethylaminoethyl bis(3-chloro-4-methylphenyl)borate] |
|  | 0.13 |  | Cc1ccc(B(OC(c2ccc(C(F)(F)F)cc2)c2ccccn2)c2ccc(C)c(Cl)c2)cc1Cl (stereo not shown) [(62), 1-(4-trifluoromethylphenyl)-1-(2-pyridyl)methyl bis(3-chloro-4-methylphenyl)borate] |
| 4.5 |  |  | CC(C)(C)c1ccc(B(OCCN)c2ccc(Cl)cc2)cc1 [(84), 2-aminoethyl (4-chlorophenyl)(4-(1,1′-dimethylethyl)phenyl)borate] |
|  |  | IC50 ([2]; DT40): 5 µM; IC50 [1]: 20 µM | NCCOB(c1ccccc1)c1ccccc1 [Comparative Compound, 2-aminoethyl diphenylborinate, reference compound] |
| 3.6 | 0.63 |  | Cc1ccc(B(OC(C)c2ccccn2)c2ccc(C)c(Cl)c2)cc1Cl (stereo not shown) [Compound (53), 1-(2-pyridyl)ethyl bis(3-chloro-4-methylphenyl)borate] |
| 6 | 0.059 |  | NCCOB(c1ccccc1)c1ccc(COCc2ccc(B(OCCN)c3ccccc3)cc2)cc1 [Compound (90), bis[4-[(2-aminoethoxy)phenylboryl]benzyl]ether] |
